Experiment [1] has as its target T1, ClpB NBD1-M dimer with P221C/M394C disulfide crosslink (Thermus thermophilus, UniProt Q9RA63, P221C/M394C).
T1 construct: NBD1-M (residues 141-534) covalent dimer linked by intermolecular disulfide between P221C of one subunit and M394C of the other; expressed in E. coli BL21 (DE3) RIL; one cross-linked and one free site; associates to tetramers with ATP
The experiment can be described thus: fluorescence displacement titration against MANT-dADP. It is filed as binding. To be noted: 2 µM protein, 50 mM Tris/HCl pH 7.5, 50 mM KCl, 5 mM MgCl2, 2 mM EDTA, 25 °C. From the text:
(§1) fluorescence displacement titration against MANT-dADP on ClpB NBD1-M dimer with P221C/M394C disulfide crosslink

In experiment [2] the target is T2, ClpB NBD1-M (Thermus thermophilus, UniProt Q9RA63, R322A).
T2 construct: expressed in E. coli BL21 (DE3) RIL; monomer/dimer equilibrium for the arginine mutants
T2 sequence (Q9RA63 141-534 R322A): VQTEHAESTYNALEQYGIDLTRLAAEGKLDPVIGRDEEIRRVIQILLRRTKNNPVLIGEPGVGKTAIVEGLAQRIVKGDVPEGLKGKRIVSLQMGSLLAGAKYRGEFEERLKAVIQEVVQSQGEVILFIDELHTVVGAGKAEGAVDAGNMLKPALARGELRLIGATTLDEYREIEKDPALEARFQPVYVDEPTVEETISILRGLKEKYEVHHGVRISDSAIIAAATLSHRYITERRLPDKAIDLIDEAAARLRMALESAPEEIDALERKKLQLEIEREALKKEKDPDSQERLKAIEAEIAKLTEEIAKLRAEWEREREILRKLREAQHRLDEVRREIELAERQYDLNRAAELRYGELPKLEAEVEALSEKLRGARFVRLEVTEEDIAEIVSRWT
The experiment is described as above. It is filed as binding. To be noted: 2 µM protein, 50 mM Tris/HCl pH 7.5, 50 mM KCl, 5 mM MgCl2, 2 mM EDTA, 25 °C. The text has this:
(§2) fluorescence displacement titration against MANT-dADP on ClpB NBD1-M

The target in experiment [3] is T3, ClpB NBD1-M (Thermus thermophilus, UniProt Q9RA63, R322A/R323A).
T3 construct: expressed in E. coli BL21 (DE3) RIL; monomer/dimer equilibrium for the arginine mutants
T3 sequence (Q9RA63 141-534 R322A/R323A): as the sequence (Q9RA63 141-534 R322A) above, with R183A counted along it
The experiment is described as above. To be noted: 2 µM protein, 50 mM Tris/HCl pH 7.5, 50 mM KCl, 5 mM MgCl2, 2 mM EDTA, 25 °C. Type of experiment: binding.
Text: as §2

Experiment [4] addresses T4, ClpB NBD1-M (Thermus thermophilus, UniProt Q9RA63, R323A).
T4 construct: expressed in E. coli BL21 (DE3) RIL; monomer/dimer equilibrium for the arginine mutants
The description is as above. It is filed as binding. The settings on record: 2 µM protein, 50 mM Tris/HCl pH 7.5, 50 mM KCl, 5 mM MgCl2, 2 mM EDTA, 25 °C.
Text: as §2

Experiment [5] concerns the target T5, ClpB NBD1-M dimer with P221C/M394C disulfide crosslink (Thermus thermophilus, UniProt Q9RA63, M394C/P221C).
T5 construct: NBD1-M (residues 141-534) covalent dimer linked by intermolecular disulfide between P221C of one subunit and M394C of the other; expressed in E. coli BL21 (DE3) RIL; one cross-linked and one free site; associates to tetramers with ATP
Briefly: stopped-flow FRET kinetics (koff/kon). It is filed as binding. The settings on record: read-out: KD "free". From the text:
stopped-flow FRET kinetics (koff/kon) on ClpB NBD1-M dimer with P221C/M394C disulfide crosslink

Experiment [6] deals with T2, ClpB NBD1-M. The experiment can be described thus: stopped-flow FRET kinetics (koff/kon). Type of experiment: binding. From the text:
(§3) stopped-flow FRET kinetics (koff/kon) on ClpB NBD1-M

Experiment [7] concerns the target T3, ClpB NBD1-M. The experiment can be described thus: stopped-flow FRET kinetics (koff/kon). It is filed as binding.
Text: as §3

The target of experiment [8] is T4, ClpB NBD1-M. The experiment can be described thus: stopped-flow FRET kinetics (koff/kon). Type of experiment: binding.
Text: as §3

Experiment [9] addresses T6, ClpB NBD1-M dimer with P221C/M394C disulfide crosslink (Thermus thermophilus, UniProt Q9RA63, P221C/M394C, form not given).
T6 construct: NBD1-M (residues 141-534) covalent dimer linked by intermolecular disulfide between P221C of one subunit and M394C of the other; expressed in E. coli BL21 (DE3) RIL; one cross-linked and one free site; associates to tetramers with ATP
Briefly: fluorescence displacement titration against MANT-dADP. The settings on record: read-out: KD(ATP); 2 µM protein; 50 mM Tris/HCl pH 7.5, 50 mM KCl, 5 mM MgCl2, 2 mM EDTA, 25 °C; ATP-regenerating system (phosphoenolpyruvate, pyruvate kinase). It is filed as binding.
Text: as §1

For experiment [10], the target named is T1, ClpB NBD1-M dimer with P221C/M394C disulfide crosslink. The experiment can be described thus: coupled colorimetric ATPase assay, Hill equation fit. Type of experiment: biochemical. The settings on record: 5 µM protein (monomer units); 50 mM Tris/HCl pH 7.5, 100 mM KCl, 10 mM MgCl2, 2 mM EDTA, 25 °C; kcat per monomer. From the text: coupled colorimetric ATPase assay, Hill equation fit on ClpB NBD1-M dimer with P221C/M394C disulfide crosslink

[11] abbreviates: read-out: KD(ATP), ATP-regenerating system (phosphoenolpyruvate, pyruvate kinase).

Where two headings read alike, the source gives them in different places.

T4 sequence (Q9RA63 141-534 R323A): as the sequence (Q9RA63 141-534 R322A) above, with A182R, R183A counted along it
T1 sequence (Q9RA63 141-534 M394C): as the sequence (Q9RA63 141-534 R322A) above, with A182R, M254C counted along it
T1 sequence (Q9RA63 141-534 P221C): as the sequence (Q9RA63 141-534 R322A) above, with P81C, A182R counted along it
T5 sequence (Q9RA63 141-534 M394C): as the sequence (Q9RA63 141-534 R322A) above, with A182R, M254C counted along it
T5 sequence (Q9RA63 141-534 P221C): as the sequence (Q9RA63 141-534 R322A) above, with P81C, A182R counted along it
T6 sequence (Q9RA63 141-534 M394C): as the sequence (Q9RA63 141-534 R322A) above, with A182R, M254C counted along it
T6 sequence (Q9RA63 141-534 P221C): as the sequence (Q9RA63 141-534 R322A) above, with P81C, A182R counted along it

Usually Kd stands for the concentration at which binding is half-saturated. In the case of `Nc1ncnc2c1ncn2[C@@H]1O[C@H](COP(=O)(O)OP(=O)(O)O)[C@@H](O)[C@H]1O` [ADP], the Kd in experiment [1] (read-out: KD(ADP)) stood at 1.3 ± 0.1 µM; at ClpB NBD1-M [2] (read-out: KD(ADP)) it was 10.7 ± 0.6 µM; on ClpB NBD1-M [3] (read-out: KD(ADP)), 9.3 ± 0.7 µM; on ClpB NBD1-M [4] (read-out: KD(ADP)), 10.2 ± 0.6 µM.
As for `CNc1ccccc1C(=O)O[C@H]1C[C@H](n2cnc3c(N)ncnc32)O[C@@H]1COP(=O)(O)OP(=O)(O)O` [MANT-dADP, 2′-deoxy-3′-O-(N′-methylanthraniloyl)adenosine-5′-O-diphosphate], the Kd was 0.67 ± 0.04 µM in [5], 8.3 ± 0.4 µM on ClpB NBD1-M [6], 6.9 ± 0.2 µM at ClpB NBD1-M [7] and 6.7 ± 0.2 µM on ClpB NBD1-M [8].
Usually Km stands for the concentration of substrate that gives half-maximal velocity. Turning to `Nc1ncnc2c1ncn2[C@@H]1O[C@H](COP(=O)(O)OP(=O)(O)OP(=O)(O)O)[C@@H](O)[C@H]1O` [ATP], the Kd in experiment [1] (setting [11]) is 96 ± 11 µM; in experiment [9], 438 ± 17 µM; on ClpB NBD1-M [2] (setting [11]), 1670 ± 160 µM; at ClpB NBD1-M [3] (setting [11]) it was 2050 ± 180 µM; on ClpB NBD1-M [4] (setting [11]), 1040 ± 120 µM. Also, in experiment [10], the Km was determined as 162 ± 4 µM.

Values taken from PMC4239642, “trans-Acting Arginine Residues in the AAA+ Chaperone ClpB Allosterically Regulate the Activity through Inter- and Intradomain Communication” (The Journal of Biological Chemistry, 2014).
